Publication PMC11864979, “First-in-class ultralong-target-residence-time p38α inhibitors as a mitosis-targeted therapy for colorectal cancer” (Nature Cancer, 2025)
Read-outs that look alike come from different tables or passages of the source.

What was measured:
Experiment in all cases: selectivity profiling in a panel of 340 wild-type kinases (Reaction Biology Europe)
Type in all cases: binding
340 wild-type kinases [1] = biological target: T1, 340 wild-type kinases (Homo sapiens, UniProt Q9Y2K2)
T1 construct: purchased Reaction Biology Europe

340 wild-type kinases [2] = biological target: T2, 340 wild-type kinases (Homo sapiens, UniProt Q16566)
T2 construct: purchased Reaction Biology Europe
T2 sequence (Q16566 1-473): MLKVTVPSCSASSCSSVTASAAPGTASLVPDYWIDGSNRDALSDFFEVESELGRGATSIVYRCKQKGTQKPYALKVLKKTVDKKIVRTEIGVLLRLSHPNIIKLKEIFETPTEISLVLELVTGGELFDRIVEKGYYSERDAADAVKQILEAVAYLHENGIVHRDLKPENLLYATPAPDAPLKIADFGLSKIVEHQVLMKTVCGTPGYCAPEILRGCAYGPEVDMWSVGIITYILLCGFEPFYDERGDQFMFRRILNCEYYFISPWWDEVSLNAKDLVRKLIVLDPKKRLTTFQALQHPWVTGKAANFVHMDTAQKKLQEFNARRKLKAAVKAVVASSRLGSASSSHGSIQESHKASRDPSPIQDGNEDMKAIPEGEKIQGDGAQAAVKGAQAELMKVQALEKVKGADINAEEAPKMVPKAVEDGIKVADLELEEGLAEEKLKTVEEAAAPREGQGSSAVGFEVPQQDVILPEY

340 wild-type kinases [3] = biological target: T3, 340 wild-type kinases (Homo sapiens, UniProt P28482)
T3 construct: purchased Reaction Biology Europe

340 wild-type kinases [4] = biological target: T4, 340 wild-type kinases (Homo sapiens, UniProt Q00537)
T4 construct: purchased Reaction Biology Europe

340 wild-type kinases [5] = biological target: T5, 340 wild-type kinases (Homo sapiens, UniProt Q15759)
T5 construct: purchased Reaction Biology Europe

340 wild-type kinases [6] = biological target: T6, 340 wild-type kinases (Homo sapiens, UniProt Q9UBS0)
T6 construct: purchased Reaction Biology Europe

340 wild-type kinases [7] = biological target: T7, 340 wild-type kinases (Homo sapiens, UniProt Q04771)
T7 construct: purchased Reaction Biology Europe
T7 sequence (Q04771 21-509): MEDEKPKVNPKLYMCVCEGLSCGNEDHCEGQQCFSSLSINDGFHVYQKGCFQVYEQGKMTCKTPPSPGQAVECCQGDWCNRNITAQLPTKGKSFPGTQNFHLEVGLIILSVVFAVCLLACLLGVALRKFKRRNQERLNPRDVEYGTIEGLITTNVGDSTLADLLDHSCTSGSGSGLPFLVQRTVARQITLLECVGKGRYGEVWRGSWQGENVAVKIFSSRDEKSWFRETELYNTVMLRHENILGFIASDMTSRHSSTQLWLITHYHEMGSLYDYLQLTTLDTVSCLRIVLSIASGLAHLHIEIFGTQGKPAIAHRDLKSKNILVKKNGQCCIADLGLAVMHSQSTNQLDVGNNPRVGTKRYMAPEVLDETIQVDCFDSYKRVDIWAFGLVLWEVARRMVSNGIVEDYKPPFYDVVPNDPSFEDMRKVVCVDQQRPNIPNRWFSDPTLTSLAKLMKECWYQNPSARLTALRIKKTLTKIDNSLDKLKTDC

340 wild-type kinases [8] = biological target: T8, 340 wild-type kinases (Homo sapiens, UniProt Q16584)
T8 construct: purchased Reaction Biology Europe

340 wild-type kinases [9] = biological target: T9, 340 wild-type kinases (Homo sapiens, UniProt O60674)
T9 construct: purchased Reaction Biology Europe

340 wild-type kinases [10] = biological target: T10, 340 wild-type kinases (Homo sapiens, UniProt Q13557)
T10 construct: purchased Reaction Biology Europe

340 wild-type kinases [11] = biological target: T11, 340 wild-type kinases (Homo sapiens, UniProt Q9Y4K4)
T11 construct: purchased Reaction Biology Europe
T11 sequence (Q9Y4K4 whole entry): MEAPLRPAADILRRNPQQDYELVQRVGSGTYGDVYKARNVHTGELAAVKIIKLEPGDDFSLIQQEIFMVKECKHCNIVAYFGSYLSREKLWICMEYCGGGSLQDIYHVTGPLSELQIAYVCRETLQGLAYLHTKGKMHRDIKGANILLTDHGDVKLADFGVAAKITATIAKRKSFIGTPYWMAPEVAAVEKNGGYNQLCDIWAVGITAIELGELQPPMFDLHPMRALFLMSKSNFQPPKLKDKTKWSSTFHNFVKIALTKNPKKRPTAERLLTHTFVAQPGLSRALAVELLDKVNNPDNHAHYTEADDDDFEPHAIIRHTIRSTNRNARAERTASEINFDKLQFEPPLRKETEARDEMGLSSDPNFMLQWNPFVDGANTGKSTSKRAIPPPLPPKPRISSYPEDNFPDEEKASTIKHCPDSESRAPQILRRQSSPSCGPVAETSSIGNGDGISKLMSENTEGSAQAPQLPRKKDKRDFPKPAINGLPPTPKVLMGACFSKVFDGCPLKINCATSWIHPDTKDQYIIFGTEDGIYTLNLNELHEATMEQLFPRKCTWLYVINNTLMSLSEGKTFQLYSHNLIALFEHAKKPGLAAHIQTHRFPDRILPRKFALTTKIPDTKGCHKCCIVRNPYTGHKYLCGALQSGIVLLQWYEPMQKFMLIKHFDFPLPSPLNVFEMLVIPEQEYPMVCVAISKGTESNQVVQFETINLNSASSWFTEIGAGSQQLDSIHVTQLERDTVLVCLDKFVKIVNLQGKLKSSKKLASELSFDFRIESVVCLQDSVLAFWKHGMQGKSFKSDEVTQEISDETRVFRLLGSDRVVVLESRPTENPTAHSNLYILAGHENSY

T10 sequence (Q13557 whole entry): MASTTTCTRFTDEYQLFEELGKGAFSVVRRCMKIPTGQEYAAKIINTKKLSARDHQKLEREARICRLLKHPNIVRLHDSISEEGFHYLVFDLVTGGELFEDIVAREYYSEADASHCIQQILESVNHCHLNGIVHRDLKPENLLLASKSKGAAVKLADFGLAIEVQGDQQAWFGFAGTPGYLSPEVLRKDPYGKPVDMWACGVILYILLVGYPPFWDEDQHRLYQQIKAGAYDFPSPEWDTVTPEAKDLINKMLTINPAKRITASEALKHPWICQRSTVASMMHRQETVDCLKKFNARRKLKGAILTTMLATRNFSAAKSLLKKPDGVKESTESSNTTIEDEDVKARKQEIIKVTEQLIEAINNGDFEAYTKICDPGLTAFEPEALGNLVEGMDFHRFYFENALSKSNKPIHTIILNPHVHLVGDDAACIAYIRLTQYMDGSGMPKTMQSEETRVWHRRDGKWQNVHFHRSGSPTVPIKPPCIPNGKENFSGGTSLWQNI
T6 sequence (Q9UBS0 whole entry): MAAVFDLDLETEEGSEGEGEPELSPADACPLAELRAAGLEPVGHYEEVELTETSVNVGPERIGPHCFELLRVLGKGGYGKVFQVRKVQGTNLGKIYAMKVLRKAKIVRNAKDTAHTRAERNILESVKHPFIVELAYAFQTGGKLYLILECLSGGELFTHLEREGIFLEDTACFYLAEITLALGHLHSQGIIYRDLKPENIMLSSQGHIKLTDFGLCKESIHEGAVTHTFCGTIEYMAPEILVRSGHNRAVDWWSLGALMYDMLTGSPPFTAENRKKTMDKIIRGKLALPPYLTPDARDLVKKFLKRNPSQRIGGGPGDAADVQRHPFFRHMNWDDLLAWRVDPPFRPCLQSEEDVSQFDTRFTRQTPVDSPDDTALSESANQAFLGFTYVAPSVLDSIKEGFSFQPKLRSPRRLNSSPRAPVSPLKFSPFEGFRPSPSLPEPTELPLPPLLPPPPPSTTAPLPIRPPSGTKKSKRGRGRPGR
T4 sequence (Q00537 whole entry): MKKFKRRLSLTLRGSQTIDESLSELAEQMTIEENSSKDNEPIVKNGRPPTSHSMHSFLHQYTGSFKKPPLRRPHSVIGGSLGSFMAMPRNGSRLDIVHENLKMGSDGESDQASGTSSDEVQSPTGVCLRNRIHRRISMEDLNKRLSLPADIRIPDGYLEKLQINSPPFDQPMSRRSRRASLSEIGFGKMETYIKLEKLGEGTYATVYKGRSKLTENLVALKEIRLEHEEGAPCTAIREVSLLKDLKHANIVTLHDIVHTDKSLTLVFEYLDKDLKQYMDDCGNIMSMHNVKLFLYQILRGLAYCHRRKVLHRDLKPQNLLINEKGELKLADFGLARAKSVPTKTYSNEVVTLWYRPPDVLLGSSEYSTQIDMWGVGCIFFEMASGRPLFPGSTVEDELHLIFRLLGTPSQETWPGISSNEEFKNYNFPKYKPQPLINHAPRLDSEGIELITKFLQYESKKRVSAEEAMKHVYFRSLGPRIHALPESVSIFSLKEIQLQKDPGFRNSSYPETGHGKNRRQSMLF
T8 sequence (Q16584 whole entry): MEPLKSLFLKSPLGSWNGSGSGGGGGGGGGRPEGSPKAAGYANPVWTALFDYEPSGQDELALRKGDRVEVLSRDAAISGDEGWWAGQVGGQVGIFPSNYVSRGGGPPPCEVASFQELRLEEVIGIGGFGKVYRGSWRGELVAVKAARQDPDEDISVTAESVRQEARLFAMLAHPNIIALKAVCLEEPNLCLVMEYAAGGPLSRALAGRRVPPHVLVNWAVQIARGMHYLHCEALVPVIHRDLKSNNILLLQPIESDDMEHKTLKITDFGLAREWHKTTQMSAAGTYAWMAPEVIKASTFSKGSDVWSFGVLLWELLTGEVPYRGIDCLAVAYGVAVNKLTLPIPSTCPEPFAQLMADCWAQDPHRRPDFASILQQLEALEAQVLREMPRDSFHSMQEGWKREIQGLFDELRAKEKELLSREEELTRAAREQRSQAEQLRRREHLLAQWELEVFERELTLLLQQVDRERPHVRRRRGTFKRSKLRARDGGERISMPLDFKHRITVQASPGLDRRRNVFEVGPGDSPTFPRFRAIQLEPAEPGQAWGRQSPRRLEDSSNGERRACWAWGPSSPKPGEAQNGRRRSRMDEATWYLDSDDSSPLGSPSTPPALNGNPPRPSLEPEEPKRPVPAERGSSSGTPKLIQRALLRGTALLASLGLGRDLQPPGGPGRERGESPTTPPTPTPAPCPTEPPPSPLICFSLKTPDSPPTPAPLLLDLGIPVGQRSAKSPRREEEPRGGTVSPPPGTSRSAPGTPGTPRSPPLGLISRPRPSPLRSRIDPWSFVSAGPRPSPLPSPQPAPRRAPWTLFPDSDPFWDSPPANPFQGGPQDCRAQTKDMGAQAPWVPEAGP
T3 sequence (P28482 whole entry): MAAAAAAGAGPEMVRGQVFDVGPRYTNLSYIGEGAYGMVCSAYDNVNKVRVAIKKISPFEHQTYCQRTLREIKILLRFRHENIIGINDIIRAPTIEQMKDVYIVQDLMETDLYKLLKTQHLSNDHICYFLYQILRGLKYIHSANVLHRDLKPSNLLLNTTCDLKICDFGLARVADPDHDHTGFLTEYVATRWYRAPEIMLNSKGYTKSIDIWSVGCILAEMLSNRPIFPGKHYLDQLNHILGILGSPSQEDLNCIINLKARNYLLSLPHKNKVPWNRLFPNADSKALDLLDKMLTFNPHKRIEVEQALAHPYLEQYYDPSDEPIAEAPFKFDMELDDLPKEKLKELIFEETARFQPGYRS
T1 sequence (Q9Y2K2 whole entry): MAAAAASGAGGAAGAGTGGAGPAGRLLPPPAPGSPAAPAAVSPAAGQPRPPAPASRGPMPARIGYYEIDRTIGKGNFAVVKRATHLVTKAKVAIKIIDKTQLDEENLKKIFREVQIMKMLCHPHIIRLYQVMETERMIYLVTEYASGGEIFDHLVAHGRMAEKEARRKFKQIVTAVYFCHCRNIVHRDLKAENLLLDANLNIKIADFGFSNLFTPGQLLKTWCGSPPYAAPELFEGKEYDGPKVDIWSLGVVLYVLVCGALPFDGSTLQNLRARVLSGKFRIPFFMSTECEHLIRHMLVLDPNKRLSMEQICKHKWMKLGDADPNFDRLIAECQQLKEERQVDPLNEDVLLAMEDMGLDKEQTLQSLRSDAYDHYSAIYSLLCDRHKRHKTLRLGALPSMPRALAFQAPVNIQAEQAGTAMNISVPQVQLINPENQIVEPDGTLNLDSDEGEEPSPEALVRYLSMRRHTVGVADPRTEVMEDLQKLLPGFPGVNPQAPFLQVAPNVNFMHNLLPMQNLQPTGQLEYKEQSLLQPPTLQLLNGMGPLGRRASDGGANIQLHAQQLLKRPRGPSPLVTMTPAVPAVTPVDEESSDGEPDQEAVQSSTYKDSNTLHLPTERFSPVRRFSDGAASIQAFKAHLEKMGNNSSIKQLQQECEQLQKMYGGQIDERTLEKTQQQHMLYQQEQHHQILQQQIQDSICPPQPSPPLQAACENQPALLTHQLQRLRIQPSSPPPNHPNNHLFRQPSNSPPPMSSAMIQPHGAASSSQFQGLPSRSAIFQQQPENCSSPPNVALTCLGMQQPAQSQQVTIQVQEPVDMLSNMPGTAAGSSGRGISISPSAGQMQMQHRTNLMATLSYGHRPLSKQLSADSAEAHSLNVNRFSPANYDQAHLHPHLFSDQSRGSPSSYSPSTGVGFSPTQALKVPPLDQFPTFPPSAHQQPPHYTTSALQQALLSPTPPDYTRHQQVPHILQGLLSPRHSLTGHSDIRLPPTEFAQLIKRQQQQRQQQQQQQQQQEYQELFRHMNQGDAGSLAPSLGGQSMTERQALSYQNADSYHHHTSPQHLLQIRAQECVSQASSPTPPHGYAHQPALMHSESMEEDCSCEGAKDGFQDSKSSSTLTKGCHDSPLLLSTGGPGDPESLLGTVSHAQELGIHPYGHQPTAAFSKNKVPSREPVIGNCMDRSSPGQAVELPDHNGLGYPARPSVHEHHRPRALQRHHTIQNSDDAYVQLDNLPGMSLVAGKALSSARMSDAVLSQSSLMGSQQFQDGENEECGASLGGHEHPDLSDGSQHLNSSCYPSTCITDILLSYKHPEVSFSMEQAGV

With CNC(=O)c1ccc2c(c1)C(=O)c1ccc(Nc3ccc(F)c(NC(=O)C4CC4)c3)cc1CC2 [Compound 2015] the remaining activity at 0.2 µM (340 wild-type kinases [1]; 0.2 µM 2015, read-out: SIK3 residual activity) was 101%, the remaining activity at 1 µM (340 wild-type kinases [1]; 1 µM 2015, read-out: SIK3 residual activity) was 95.7% and the remaining activity at 0.2 µM (340 wild-type kinases [1]; SIK3, 0.2 µM, read-out: residual activity) was 101%. For the same molecule, the remaining activity at 1 µM (340 wild-type kinases [1]; SIK3, 1 µM, read-out: residual activity) was 95.7%, the remaining activity at 0.2 µM (340 wild-type kinases [2]; 0.2 µM 2015, read-out: CAMK4 residual activity) was 92.7% and the remaining activity at 1 µM (340 wild-type kinases [2]; 1 µM 2015, read-out: CAMK4 residual activity) was 94.1%. It also gave a remaining activity at 0.2 µM (340 wild-type kinases [2]; CAMK4, 0.2 µM, read-out: residual activity) of 92.7%, a remaining activity at 1 µM (340 wild-type kinases [2]; CAMK4, 1 µM, read-out: residual activity) of 94.2% and a remaining activity at 0.2 µM (340 wild-type kinases [3]; 0.2 µM 2015, read-out: ERK2 residual activity) of 99.1%. For the same molecule, the remaining activity at 1 µM (340 wild-type kinases [3]; 1 µM 2015, read-out: ERK2 residual activity) was 90.5%, the remaining activity at 0.2 µM (340 wild-type kinases [3]; ERK2, 0.2 µM, read-out: residual activity) was 99.1% and the remaining activity at 1 µM (340 wild-type kinases [3]; ERK2, 1 µM, read-out: residual activity) was 90.5%. It also gave a remaining activity at 0.2 µM (340 wild-type kinases [4]; 0.2 µM 2015, read-out: CDK17/p35NCK residual activity) of 94.8%, a remaining activity at 1 µM (340 wild-type kinases [4]; 1 µM 2015, read-out: CDK17/p35NCK residual activity) of 93.6% and a remaining activity at 1 µM (340 wild-type kinases [4]; CDK17/p35NCK, 1 µM, read-out: residual activity) of 93.6%. The remaining activity at 0.2 µM (340 wild-type kinases [5]; 0.2 µM 2015, read-out: p38beta residual activity) was 1.85%, the remaining activity at 1 µM (340 wild-type kinases [5]; 1 µM 2015, read-out: p38beta residual activity) was 1.94% and the remaining activity at 0.2 µM (340 wild-type kinases [5]; p38beta, 0.2 µM, read-out: residual activity) was 1.85%. The remaining activity at 1 µM (340 wild-type kinases [5]; p38beta, 1 µM, read-out: residual activity) was 1.94%, the remaining activity at 0.2 µM (340 wild-type kinases [6]; 0.2 µM 2015, read-out: S6Kbeta residual activity) was 108% and the remaining activity at 1 µM (340 wild-type kinases [6]; 1 µM 2015, read-out: S6Kbeta residual activity) was 109%. The remaining activity at 0.2 µM (340 wild-type kinases [6]; S6Kbeta, 0.2 µM, read-out: residual activity) was 108%, the remaining activity at 1 µM (340 wild-type kinases [6]; S6Kbeta, 1 µM, read-out: residual activity) was 109% and the remaining activity at 0.2 µM (340 wild-type kinases [7]; 0.2 µM 2015, read-out: ACVR1 residual activity) was 88.7%. For the same molecule, the remaining activity at 1 µM (340 wild-type kinases [7]; 1 µM 2015, read-out: ACVR1 residual activity) was 96.8%, the remaining activity at 0.2 µM (340 wild-type kinases [7]; ACVR1, 0.2 µM, read-out: residual activity) was 88.7% and the remaining activity at 1 µM (340 wild-type kinases [7]; ACVR1, 1 µM, read-out: residual activity) was 96.8%. It also gave a remaining activity at 0.2 µM (340 wild-type kinases [8]; 0.2 µM 2015, read-out: MAP3K11 residual activity) of 100%, a remaining activity at 1 µM (340 wild-type kinases [8]; 1 µM 2015, read-out: MAP3K11 residual activity) of 93.8% and a remaining activity at 0.2 µM (340 wild-type kinases [8]; MAP3K11, 0.2 µM, read-out: residual activity) of 100%. It also gave a remaining activity at 1 µM (340 wild-type kinases [8]; MAP3K11, 1 µM, read-out: residual activity) of 93.8%, a remaining activity at 0.2 µM (340 wild-type kinases [9]; 0.2 µM 2015, read-out: JAK2 residual activity) of 104% and a remaining activity at 1 µM (340 wild-type kinases [9]; 1 µM 2015, read-out: JAK2 residual activity) of 102%. The remaining activity at 0.2 µM (340 wild-type kinases [9]; JAK2, 0.2 µM, read-out: residual activity) was 104%, the remaining activity at 1 µM (340 wild-type kinases [9]; JAK2, 1 µM, read-out: residual activity) was 102% and the remaining activity at 0.2 µM (340 wild-type kinases [10]; 0.2 µM 2015, read-out: CAMK2D residual activity) was 98.1%. It also gave a remaining activity at 1 µM (340 wild-type kinases [10]; 1 µM 2015, read-out: CAMK2D residual activity) of 95.7%, a remaining activity at 0.2 µM (340 wild-type kinases [10]; CAMK2D, 0.2 µM, read-out: residual activity) of 98.1% and a remaining activity at 1 µM (340 wild-type kinases [10]; CAMK2D, 1 µM, read-out: residual activity) of 95.7%. For the same molecule, the remaining activity at 0.2 µM (340 wild-type kinases [11]; 0.2 µM 2015, read-out: MAP4K5 residual activity) was 101%, the remaining activity at 1 µM (340 wild-type kinases [11]; 1 µM 2015, read-out: MAP4K5 residual activity) was 91.4% and the remaining activity at 0.2 µM (340 wild-type kinases [11]; MAP4K5, 0.2 µM, read-out: residual activity) was 101%. It also gave a remaining activity at 1 µM (340 wild-type kinases [11]; MAP4K5, 1 µM, read-out: residual activity) of 91.4%.
